# Results: US20120003270A1, “6-SUBSTITUTED ISOFLAVONOID COMPOUNDS AND USES THEREOF” (priority 2008, published 2012)
# pEC50, pIC50: −log10 of the molar value.
# Tests used:
# [1] = Free radical scavenging (DPPH); type: biochemical; details: DPPH 0.1 mM, 20 minutes, 517 nm; read-out: Free radical scavenging ability EC50
# Method: The antioxidant (free radical trapping) activity of test compounds was assessed using the stable free radical compound 2,2-diphenyl-1-picrylhydrazyl (DPPH). A stock solution of DPPH was prepared at a concentration of 0.1 mM in ethanol and mixed for 10 minutes prior to use. Compound (1) was reacted with DPPH for 20 minutes, after which time the absorbance at 517 nm was determined. The change in absorbance at 517 nm was compared to a reagent blank (DPPH with ethanol alone). The IC50 value was estimated as the concentration of the test compound that caused a 0.6 change in absorbance (with 1.2 absorbance units representing total scavenging of the DPPH radical).
# [2] = system: low density lipoprotein (LDL); assay: Cu2+-induced oxidation of LDL (FOX assay); type: biochemical; parameters: lipid peroxide formation: unit not given here
# Method: Blood was collected by venipuncture and plasma separated by centrifugation. LDL was then isolated from plasma using a 4-step sodium chloride density gradient and ultracentrifuged at 200,000 g for 20 hours at 4° C. The collect LDL was purified by passage through gel filtration PD10 column to remove excess salt and EDTA, and stored in the dark at 4° C. to prevent auto-oxidation and used with two weeks of isolation. The LDL cholesterol content was measure using a standard enzymatic method and protein concentration determined by the Lowry method using BSA as the standard.
# On the day of each experiment a 2 mL aliquot of LDL was passed through a second PD10 column and diluted with chelex treated PBS (100 mM) to give a standard protein concentration of 0.1 mg/mL, ie final concentration per reaction. Oxidation reactions were initiated by the addition of freshly prepared Cu^2+ solution, such that the final concentration of CuSO4 was 5 μM. […] The extent of lipoprotein oxidation was determined by measuring the formation of lipid-peroxides on aliquots removed every 30-minute over a 3-hour period. Peroxides were determined at each time point by the ferrous oxidation-xylenol orange (FOX) assay using standard hydrogen peroxide curve (5 to 200 μM). Compound (1) was examined in at least two separate experiments performed on separate days.
# PGE2 = PGE2 synthesis in RA-stimulated U937 cells; type: cell-based, human; details: A23187 0.5 μM, 30 min
# Method: U937 cells were thawed and resuspended in RPMI and 10% FCS at 2×10^5 cells per ml. The cells were incubated in 5% CO2 at 37° C. and expanded in growing culture to at least 6.4×10^7 total cells. The cells were then resuspended in fresh medium and cultured with 5 μM retinoic acid (RA) at 2×10^5 cells per ml for a further 3 days (72 h). RA treated cells were washed 2× in serum-free RPMI and resuspended in serum-free medium at 5×10^6 cells per ml. The cells were aliquotted into Teflon tubes at 1 ml per tube. Working stock solutions of compounds (1) and (3) were prepared at 0.1 mM, 1 mM and 10 mM as described above. For each working dilution, 10 μl was added to 1 ml cells to achieve a final concentration of 0 (DMSO alone), 1, 10, and 100 μM for each test compound. Cells were incubated in triplicate with each concentration of test compound for 15 min at 37° C. After 15 min pre-incubation, each 1 ml tube of cells received 5 μl of a […] solution of the calcium ionophore A23187 (to achieve 0.5 μM A23187). Incubation at 37° C. was continued for a further 30 min. After incubation, supernatants were collected by centrifugation at 2000 rpm for 10 min and stored at −20° C. until required for assay.
structure (smiles),measurement,setting,value
O=C(O)C1CCCN1Cc1cc2c(cc1O)OCC(c1ccc(O)cc1)=C2 (stereo not drawn) [Compound (3)],pEC50,[1],4.87
same,lipid peroxide formation,"[2]; Compound (3) 10 μM + Cu++ 5 μM, no LDL, 0 min",2.36 ± 5.25
same,lipid peroxide formation,"[2]; Compound (3) 10 μM + Cu++ 5 μM, no LDL, 30 min",−3.75 ± 3.02
same,lipid peroxide formation,"[2]; Compound (3) 10 μM + Cu++ 5 μM, no LDL, 60 min",−1.38 ± 2.64
same,lipid peroxide formation,"[2]; Compound (3) 10 μM + Cu++ 5 μM, no LDL, 90 min",−0.82 ± 2.31
same,lipid peroxide formation,"[2]; Compound (3) 10 μM + Cu++ 5 μM, no LDL, 120 min",−2.48 ± 2.55
same,lipid peroxide formation,"[2]; Compound (3) 10 μM + Cu++ 5 μM, no LDL, 150 min",−6.22 ± 6.83
same,pIC50,"[2]; LDL 0.1 mg/mL, CuSO4 5 μM, read-out: IC50, concentration at which 50% of the LDL oxidation was inhibited",6.30
same,lipid peroxide formation,"[2]; LDL 0.1 mg/ml + compound (3) 0.01 μM + Cu++ 5 μM, 0 min",5.55 ± 0.22
same,lipid peroxide formation,"[2]; LDL 0.1 mg/ml + compound (3) 0.01 μM + Cu++ 5 μM, 30 min",2.85 ± 2.80
same,lipid peroxide formation,"[2]; LDL 0.1 mg/ml + compound (3) 0.01 μM + Cu++ 5 μM, 60 min",25.92 ± 13.53
same,lipid peroxide formation,"[2]; LDL 0.1 mg/ml + compound (3) 0.01 μM + Cu++ 5 μM, 90 min",88.97 ± 3.03
same,lipid peroxide formation,"[2]; LDL 0.1 mg/ml + compound (3) 0.01 μM + Cu++ 5 μM, 120 min",131.94 ± 4.81
same,lipid peroxide formation,"[2]; LDL 0.1 mg/ml + compound (3) 0.01 μM + Cu++ 5 μM, 150 min",137.86 ± 26.03
same,lipid peroxide formation,"[2]; LDL 0.1 mg/ml + compound (3) 0.1 μM + Cu++ 5 μM, 0 min",5.62 ± 0.85
same,lipid peroxide formation,"[2]; LDL 0.1 mg/ml + compound (3) 0.1 μM + Cu++ 5 μM, 30 min",3.24 ± 1.93
same,lipid peroxide formation,"[2]; LDL 0.1 mg/ml + compound (3) 0.1 μM + Cu++ 5 μM, 60 min",18.89 ± 7.84
same,lipid peroxide formation,"[2]; LDL 0.1 mg/ml + compound (3) 0.1 μM + Cu++ 5 μM, 90 min",73.79 ± 1.40
same,lipid peroxide formation,"[2]; LDL 0.1 mg/ml + compound (3) 0.1 μM + Cu++ 5 μM, 120 min",138.28 ± 2.75
same,lipid peroxide formation,"[2]; LDL 0.1 mg/ml + compound (3) 0.1 μM + Cu++ 5 μM, 150 min",155.66 ± 21.85
same,lipid peroxide formation,"[2]; LDL 0.1 mg/ml + compound (3) 1.0 μM + Cu++ 5 μM, 0 min",7.38 ± 2.69
same,lipid peroxide formation,"[2]; LDL 0.1 mg/ml + compound (3) 1.0 μM + Cu++ 5 μM, 30 min",−2.09 ± 9.59
same,lipid peroxide formation,"[2]; LDL 0.1 mg/ml + compound (3) 1.0 μM + Cu++ 5 μM, 60 min",7.21 ± 4.53
same,lipid peroxide formation,"[2]; LDL 0.1 mg/ml + compound (3) 1.0 μM + Cu++ 5 μM, 90 min",7.13 ± 3.76
same,lipid peroxide formation,"[2]; LDL 0.1 mg/ml + compound (3) 1.0 μM + Cu++ 5 μM, 120 min",11.69 ± 7.30
same,lipid peroxide formation,"[2]; LDL 0.1 mg/ml + compound (3) 1.0 μM + Cu++ 5 μM, 150 min",79.63 ± 27.82
same,lipid peroxide formation,"[2]; LDL 0.1 mg/ml + compound (3) 10 μM + Cu++ 5 μM, 0 min",1.62 ± 4.14
same,lipid peroxide formation,"[2]; LDL 0.1 mg/ml + compound (3) 10 μM + Cu++ 5 μM, 30 min",2.59 ± 2.96
same,lipid peroxide formation,"[2]; LDL 0.1 mg/ml + compound (3) 10 μM + Cu++ 5 μM, 60 min",5.65 ± 2.55
same,lipid peroxide formation,"[2]; LDL 0.1 mg/ml + compound (3) 10 μM + Cu++ 5 μM, 90 min",4.40 ± 1.13
same,lipid peroxide formation,"[2]; LDL 0.1 mg/ml + compound (3) 10 μM + Cu++ 5 μM, 120 min",3.57 ± 2.23
same,lipid peroxide formation,"[2]; LDL 0.1 mg/ml + compound (3) 10 μM + Cu++ 5 μM, 150 min",4.15 ± 2.87
same,PGE2,PGE2; 1 μM,1.025 ± 0.114 pg
same,PGE2,PGE2; 10 μM,1.271 ± 0.212 pg
same,PGE2,PGE2; 100 μM,1.39 ± 0.227 pg
same,melting point,,240 °C (dec.)
